ChEMBL document CHEMBL1155915, “Anticonvulsant activity of some xanthone derivatives” (Bioorg Med Chem, 2008)
The source made the active and inactive calls. The calls are words filed in the database; no cut-off is given here.

Key:
[1] = tested on: Mus musculus; assay: Neurotoxicity in mouse at 10 mg/kg, ip after 0.5 hrs by rotarod test; format: toxicity, organism-based; parameters: dose 10 mg/kg, route intraperitoneal; conditions: in vivo
[2] = tested on: Mus musculus; assay: Neurotoxicity in mouse at 30 mg/kg, ip after 4 hrs by rotarod test; format: toxicity, organism-based; parameters: dose 30 mg/kg, route intraperitoneal; conditions: in vivo
[3] = tested on: Mus musculus; assay: Neurotoxicity in mouse at 300 mg/kg, ip after 0.5 hrs by rotarod test; format: toxicity, organism-based; parameters: dose 300 mg/kg, route intraperitoneal; conditions: in vivo
[4] = tested on: Mus musculus; assay: Neurotoxicity in mouse at 300 mg/kg, ip after 4 hrs by rotarod test; format: toxicity, organism-based; parameters: dose 300 mg/kg, route intraperitoneal; conditions: in vivo
[5] = tested on: Rattus norvegicus; assay: Neurotoxicity in rat at 30 mg/kg, po after 0.25 hrs by rotarod test; format: toxicity, organism-based; parameters: dose 30 mg/kg, route oral; conditions: in vivo
[6] = tested on: Rattus norvegicus; assay: Neurotoxicity in rat at 30 mg/kg, po after 0.5 hrs by rotarod test; format: toxicity, organism-based; parameters: dose 30 mg/kg, route oral; conditions: in vivo
[7] = tested on: Rattus norvegicus; assay: Neurotoxicity in rat at 30 mg/kg, po after 1 hr by rotarod test; format: toxicity, organism-based; parameters: dose 30 mg/kg, route oral; conditions: in vivo
[8] = tested on: Rattus norvegicus; assay: Neurotoxicity in rat at 30 mg/kg, po after 2 hrs by rotarod test; format: toxicity, organism-based; parameters: dose 30 mg/kg, route oral; conditions: in vivo
[9] = tested on: Rattus norvegicus; assay: Neurotoxicity in rat at 30 mg/kg, po after 4 hrs by rotarod test; format: toxicity, organism-based; parameters: dose 30 mg/kg, route oral; conditions: in vivo
[10] = tested on: Mus musculus; assay: Neurotoxicity in mouse at 3 mg/kg, ip after 0.5 hrs by rotarod test; format: toxicity, organism-based; parameters: dose 3 mg/kg, route intraperitoneal; conditions: in vivo
[11] = tested on: Mus musculus; assay: Anticonvulsant activity against maximal electroshock-induced seizures in mouse at 3 mg/kg, ip after 0.5 hrs; format: functional, organism-based; parameters: dose 3 mg/kg
[12] = tested on: Mus musculus; assay: Anticonvulsant activity against maximal electroshock-induced seizures in mouse at 10 mg/kg, ip after 0.5 hrs; format: functional, organism-based; parameters: dose 10 mg/kg
[13] = tested on: Mus musculus; assay: Anticonvulsant activity against maximal electroshock-induced seizures in mouse at 30 mg/kg, ip after 0.5 hrs; format: functional, organism-based; parameters: dose 30 mg/kg
[14] = tested on: Mus musculus; assay: Anticonvulsant activity against maximal electroshock-induced seizures in mouse at 30 mg/kg, ip after 4 hrs; format: functional, organism-based; parameters: dose 30 mg/kg
[15] = tested on: Mus musculus; assay: Anticonvulsant activity against maximal electroshock-induced seizures in mouse at 100 mg/kg, ip after 0.5 hrs; format: functional, organism-based; parameters: dose 100 mg/kg
[16] = tested on: Mus musculus; assay: Anticonvulsant activity against maximal electroshock-induced seizures in mouse at 100 mg/kg, ip after 4 hrs; format: functional, organism-based; parameters: dose 100 mg/kg
[17] = tested on: Mus musculus; assay: Anticonvulsant activity against maximal electroshock-induced seizures in mouse at 300 mg/kg, ip after 0.5 hrs; format: functional, organism-based; parameters: dose 300 mg/kg
[18] = tested on: Mus musculus; assay: Anticonvulsant activity against maximal electroshock-induced seizures in mouse at 300 mg/kg, ip after 4 hrs; format: functional, organism-based; parameters: dose 300 mg/kg
[19] = tested on: Mus musculus; assay: Anticonvulsant activity against scMet-induced seizures in mouse at 100 mg/kg, ip after 4 hrs; format: functional, organism-based; parameters: dose 100 mg/kg
[20] = tested on: Mus musculus; assay: Anticonvulsant activity against scMet-induced seizures in mouse at 30 mg/kg, ip after 0.5 hrs; format: functional, organism-based; parameters: dose 30 mg/kg
[21] = tested on: Mus musculus; assay: Anticonvulsant activity against scMet-induced seizures in mouse at 30 mg/kg, ip after 4 hrs; format: functional, organism-based; parameters: dose 30 mg/kg
[22] = tested on: Mus musculus; assay: Anticonvulsant activity against scMet-induced seizures in mouse at 100 mg/kg, ip after 0.5 hrs; format: functional, organism-based; parameters: dose 100 mg/kg
[23] = tested on: Mus musculus; assay: Anticonvulsant activity against scMet-induced seizures in mouse at 300 mg/kg, ip after 0.5 hrs; format: functional, organism-based; parameters: dose 300 mg/kg
[24] = tested on: Mus musculus; assay: Anticonvulsant activity against scMet-induced seizures in mouse at 300 mg/kg, ip after 4 hrs; format: functional, organism-based; parameters: dose 300 mg/kg
[25] = tested on: Mus musculus; assay: Neurotoxicity in mouse at 30 mg/kg, ip after 0.5 hrs by rotarod test; format: toxicity, organism-based; parameters: dose 30 mg/kg, route intraperitoneal; conditions: in vivo
[26] = tested on: Rattus norvegicus; assay: Anticonvulsant activity against maximal electroshock-induced seizures in rat at 30 mg/kg, po after 0.25 hrs; format: functional, organism-based; parameters: dose 30 mg/kg
[27] = tested on: Rattus norvegicus; assay: Anticonvulsant activity against maximal electroshock-induced seizures in rat at 30 mg/kg, po after 0.5 hrs; format: functional, organism-based; parameters: dose 30 mg/kg
[28] = tested on: Rattus norvegicus; assay: Anticonvulsant activity against maximal electroshock-induced seizures in rat at 30 mg/kg, po after 2 hrs; format: functional, organism-based; parameters: dose 30 mg/kg
[29] = Displacement of [3H]nitrendipine from voltage-dependent calcium channel in rat brain cortex by scintillation counting; format: tissue-based
[30] = tested on: Mus musculus; assay: Neurotoxicity in mouse at 100 mg/kg, ip after 0.5 hrs by rotarod test; format: toxicity, organism-based; parameters: dose 100 mg/kg, route intraperitoneal; conditions: in vivo
[31] = tested on: Mus musculus; assay: Neurotoxicity in mouse at 100 mg/kg, ip after 4 hrs by rotarod test; format: toxicity, organism-based; parameters: dose 100 mg/kg, route intraperitoneal; conditions: in vivo
[32] = tested on: Rattus norvegicus; assay: Anticonvulsant activity against maximal electroshock-induced seizures in rat at 30 mg/kg, po after 1 hr; format: functional, organism-based; parameters: dose 30 mg/kg
[33] = tested on: Rattus norvegicus; assay: Anticonvulsant activity against maximal electroshock-induced seizures in rat at 30 mg/kg, po after 4 hrs; format: functional, organism-based; parameters: dose 30 mg/kg
[34] = Displacement of [3H]flunitrazepam from benzodiazepine receptor in rat brain cortex by scintillation counting; format: tissue-based
[35] = Neurotoxicity in ip dosed mouse by rotarod test; format: toxicity, organism-based; conditions: in vivo
[36] = tested on: Mus musculus; assay: Anticonvulsant activity against scMet-induced seizures in ip dosed mouse; format: functional
[37] = organism: Mus musculus; assay: Protective index, ratio of TD50 for mouse by rotarod test to ED50 for mouse by scMET test; format: functional
[38] = tested on: Mus musculus; assay: Anticonvulsant activity against maximal electroshock-induced seizures in ip dosed mouse; format: functional
[39] = organism: Mus musculus; assay: Protective index, ratio of TD50 for mouse by rotarod test to ED50 for mouse by MES test; format: functional

| Structure (SMILES) | Neurotoxicity [2] | Neurotoxicity [4] | Neurotoxicity [5] | Neurotoxicity [6] | Neurotoxicity [7] | Neurotoxicity [8] | Neurotoxicity [9] | Activity [13] | Activity [14] | Activity [16] | Activity [17] | Activity [18] | Activity [19] | Activity [20] | Activity [21] | Activity [22] | Activity [23] | Activity [24] | Activity [26] | Activity [27] | further results |
| --- | --- | --- | --- | --- | --- | --- | --- | --- | --- | --- | --- | --- | --- | --- | --- | --- | --- | --- | --- | --- | --- |
| CCC(O)CNCc1ccc2oc3cc(Cl)ccc3c(=O)c2c1 (racemic) | Not Active | Neurotoxic | Not Active | Not Active | Not Active | Not Active | Not Active | Active | inactive | Active | Active | Active | inactive | inactive | inactive | inactive | inactive | inactive | – | – | Neurotoxicity [1]: Not Active; Neurotoxicity [3]: Neurotoxic; Neurotoxicity [10]: Not Active; Activity [11]: inactive; Activity [12]: inactive; Activity [15]: Active |
| CC[C@@H](CO)NCc1ccc2oc3cc(Cl)ccc3c(=O)c2c1 | Not Active | Neurotoxic | Not Active | Not Active | Not Active | Not Active | Not Active | inactive | inactive | inactive | Active | Active | inactive | inactive | inactive | inactive | inactive | inactive | inactive | inactive | Neurotoxicity [25]: Not Active; Neurotoxicity [3]: Neurotoxic; Activity [28]: inactive; Activity [15]: Active |
| COC(=O)C1=C(C)NC(C)=C(C(=O)OC)C1c1ccccc1[N+](=O)[O-] [NIFEDIPINE] | – | – | – | – | – | – | – | – | – | – | – | – | – | – | – | – | – | – | – | – | EC50 [29]: 1 nM |
| CC(C)(CCO)NCc1ccc2oc3cc(Cl)ccc3c(=O)c2c1 | Not Active | Not Active | Not Active | Not Active | Not Active | Not Active | Not Active | inactive | inactive | inactive | Active | inactive | inactive | inactive | inactive | inactive | inactive | inactive | inactive | inactive | Neurotoxicity [30]: Not Active; Neurotoxicity [31]: Not Active; Activity [32]: inactive; Activity [28]: inactive; Activity [33]: inactive |
| CN1C(=O)CN=C(c2ccccc2)c2cc(Cl)ccc21 [DIAZEPAM] | – | – | – | – | – | – | – | – | – | – | – | – | – | – | – | – | – | – | – | – | EC50 [34]: 700 nM |
| C[C@H](CO)NCc1ccc2oc3cc(Cl)ccc3c(=O)c2c1 | Not Active | Not Active | Not Active | Not Active | Not Active | Not Active | Not Active | inactive | inactive | inactive | Active | Active | inactive | inactive | inactive | inactive | inactive | inactive | inactive | inactive | Neurotoxicity [25]: Not Active; Neurotoxicity [31]: Not Active; Activity [32]: inactive; TD50 [35]: 483 mg/kg; ED50 [36]: > 500 mg/kg; PI [37]: <0.96; ED50 [38]: 77.4 mg/kg; PI [39]: 6.23 |
| O=C1NC(=O)C(c2ccccc2)(c2ccccc2)N1 [PHENYTOIN] | – | – | – | – | – | – | – | – | – | – | – | – | – | – | – | – | – | – | – | – | ED50 [36]: > 50 mg/kg; PI [37]: <0.9; ED50 [38]: 6.48 mg/kg; PI [39]: 6.6 |
